“Also recorded” adds a separate entry of the source.

This is an account of results in patent US3976771A, “Glycylglycine amide preparations and method of use antiarrhythmic” (priority 1972, dated 1976).

Data set [1] has as its system aconitine-induced arrhythmias. The data set can be described thus: Protection against aconitine-induced arrhythmias in the guinea-pig. The following applies: for Dose of aconitine necessary for development of ECG-changes indicating Asystolie / Dose of aconitine necessary for development of ECG-changes indicating Fibrillation / Dose of aconitine necessary for development of ECG-changes indicating Tachycardia: 15 min before aconitine infusion, mean ± standard error. The class given is in vivo. The method, then:
The procedure used by Vargaftig et al. (Eur. J. Pharmacol. 6, 49, 1969) was slightly modified; Guinea-pigs of both sexes (250-400 g) were anaesthetized with uretane (1 g/kg bodyweight, i.p.). A plastic tube was introduced into the trachea and a thin plastic catheter into the jugular vein. Respiration was supported by means of a Harward Rodent Respirator 680. Aconitine was infused i.v. at a rate of 3 μg/min by means of a Palmer slow injection apparatus. The ECG (lead II) was continuously monitored. The amount of aconitine (μg/kg bodyweight) injected to induce ventricular tachycardia, fibrillation and asystolie was calculated. Test compounds were given i.p. with different time intervals between injection of drug and start of aconitine infusion.

The subject of data set [2] is ventricular fibrillation upon exposure to chloroform vapor. The data set can be described thus: Protection against chloroform-induced ventricular fibrillation in mice. Type of data set: in vivo. The text has this:
The method used in mice was essentially the same as described by Lawson (J. Pham. Exp. Therap. 160, 22 (1968). Male mice (NMRI, 17-25 g) were used. Unanesthetized, untreated mice show cardiac ventricular fibrillation upon exposure to chloroform vapor. The ventricular fibrillation is abolished if the animals are pretreated with appropriate doses of known antiarrhythmic agents before exposure to chloroform.
For determination of antiarrhythmic effect groups of 10 mice were pretreated by the oral route with varying sublethal doses of compound 10 to 300 min. respectively before being placed individually in a beaker containing chloroform. The mouse was removed from the beaker at the time of respiratory arrest and the thorax opened. Examination of ventricular fibrillation was made by means of ECG-recordings (lead II). The effect of the compound was expressed as the number of animals in per cent which were protected from fibrillation.

In data set [3] the test system is mice. Put plainly: Acute oral toxicity in mice. The conditions noted are these: deaths during 7 days. Type of data set: in vivo. The method, then:
For determination of acute toxicity groups of 10 mice were treated orally with varying doses of compound observing the incidence of death, during a 7 days period. LD50 and LD 0.1 were calculated by means of a logarithmic-probit graph paper.

For data set [4], the system named is ventricular arrhythmias produced by coronary artery ligation. Put plainly: Ventricular arrhythmias produced by coronary artery ligation in unanesthetized dogs. The conditions noted are these: two dogs, constant i.v. infusion 0.5 mg/kg/min. Type of data set: in vivo. The method, then:
The effects of intravenous infusion of GEA968 was also studies on two unanesthesized dogs with ventricular arrhythmias produced by coronary artery ligation, essentially following the procedure of A. S. Harris, Circulation, Vol. I, page 1318 (1950). The two dogs with well-developed arrhythmias received a constant infusion of 0.5 mg/kg/min. of GEA968.

Data set [5] relates to contractility of the heart. The data set can be described thus: Qualitative observation of side effects in the animal tests. Type of data set: in vivo. The conditions noted are these: preliminary indication. From the text:
However, it was qualitatively observed that the side effects of the compounds of the present invention appeared to be less significant.

The conditions of data set [6]: due to low levels of the drug in the blood; cited from earlier work.
Setting [7] is: 100 mg/kg p.o., 10 min between pretreatment and chloroform vapor.
[8] abbreviates: 100 mg/kg p.o., 60 min between pretreatment and chloroform vapor.

On to `CCN(CC)CC(=O)NCC(=O)Nc1c(C)cccc1C` [GEA 968, N,N-diethylglycylglycine-2,6-xylidide], for which the “Dose of aconitine necessary for development of ECG-changes indicating Asystolie” value (“Dose … of ECG-changes indicating Asystolie” below) in data set [1] (25 mg/kg i.p.) amounted to 210 ± 12 μg/kg bodyweight; in data set [1] (50 mg/kg i.p.) it was 378 ± 33 μg/kg bodyweight; in data set [1] (100 mg/kg i.p.), 632 ± 132 μg/kg bodyweight. Also, the “Dose of aconitine necessary for development of ECG-changes indicating Fibrillation” value (“Dose … of ECG-changes indicating Fibrillation” below) in data set [1] (25 mg/kg i.p.) amounted to 155 ± 10 μg/kg bodyweight; in data set [1] (50 mg/kg i.p.), 284 ± 25 μg/kg bodyweight; in data set [1] (100 mg/kg i.p.), 356 ± 32 μg/kg bodyweight. For the same compound, the entries for the “Dose of aconitine necessary for development of ECG-changes indicating Tachycardia” value (shortened to “Dose … of ECG-changes indicating Tachycardia”) in data set [1] (25 mg/kg i.p.), in data set [1] (50 mg/kg i.p.) and in data set [1] (100 mg/kg i.p.) were 91 ± 6 μg/kg bodyweight, 161 ± 15 μg/kg bodyweight and 225 ± 35 μg/kg bodyweight, respectively. Moreover, the “Antiarrhythmic effect in the aconitine test (in words)” value in data set [1] (guinea-pig, i.p.) is “markedly potent; also recorded: good antiarrhythmic effects”. Besides, the “Percentage animals protected from fibrillation” value (“Percentage animals protected” below) was 45 per cent in data set [2] (54 mg/kg p.o. (one tenth of LD50), 10 min); 55 per cent in data set [2] (54 mg/kg p.o. (one tenth of LD50), 60 min); 15 per cent in data set [2] (54 mg/kg p.o. (one tenth of LD50), 300 min); 70 per cent in data set [2] (setting [7]); 65 per cent in data set [2] (setting [8]); 45 per cent in data set [2] (100 mg/kg p.o., 300 min between pretreatment and chloroform vapor). For the same compound, the “Percentage animals protected” value is recorded as 90 per cent in data set [2] (250 mg/kg p.o., 10 min); 90 per cent in data set [2] (250 mg/kg p.o., 60 min); 70 per cent in data set [2] (250 mg/kg p.o., 300 min). Further, the “Antiarrhythmic effect in the chloroform test (in words)” value in data set [2] (mice, p.o.) is on record as “good antiarrhythmic effects”. For the same compound, the “Duration of antiarrhythmic effectiveness (in words)” value in data set [2] (mouse, in vivo) is “especially significant”. Moreover, the “LD 0.1 (the dose which kills 0.1 % of the animals)” value in data set [3] stood at 250 mg/kg bodyweight. Also, in data set [3], the “Toxicity LD50 p.o.” value worked out at 535 mg/kg bodyweight. Also, the “Duration of suppression of arrhythmias” value in data set [4] is “unusually long duration”. The “Effect on ventricular arrhythmias” value in data set [4] is “suppression of the arrhythmias”. For the same compound, in data set [5], the “Effect on contractility of the heart (qualitative)” value was “improving the contractility of the heart”.
Regarding `CCN(CC)CC(=O)NCC(=O)NC(C)(C)c1ccccc1` [GEA 980, N^3,N^3 -diethyl-N^1 -(α,α-dimethylbenzyl) glycylglycine amide], the “Percentage animals protected” value in data set [2] (setting [7]) is reported as 11 per cent; in data set [2] (setting [8]), 10 per cent; in data set [2] (300 mg/kg p.o., 10 min), 25 per cent; in data set [2] (300 mg/kg p.o., 60 min), 10 per cent; in data set [2] (500 mg/kg p.o., 10 min) it was 65 per cent; in data set [2] (500 mg/kg p.o., 60 min), 0 per cent. Further, the “Toxicity LD50 p.o.” value in data set [3] is given as above 500 mg/kg bodyweight.
Take `CCN(CC)CC(=O)N[C@@H](C)C(=O)NC(C)(C)c1ccccc1` [GEA 981, N^3,N^3 -diethyl-N^1 -(α,α-dimethylbenzyl)glycylalanineamide]: the “Percentage animals protected” value in data set [2] (88 mg/kg p.o. (one tenth of LD50), 10 min) amounted to 35 per cent; in data set [2] (88 mg/kg p.o. (one tenth of LD50), 60 min), 10 per cent; in data set [2] (610 mg/kg p.o. (LD 0.1), 10 min), 90 per cent; in data set [2] (610 mg/kg p.o. (LD 0.1), 60 min) it was 45 per cent. Besides, the “LD 0.1 (the dose which kills 0.1 % of the animals)” value in data set [3] was determined as 610 mg/kg bodyweight. Further, the “Toxicity LD50 p.o.” value in data set [3] came to 880 mg/kg bodyweight.
Take `CCN(CC)[C@@H](C)C(=O)N[C@@H](C)C(=O)NC(C)(C)c1ccccc1` [GEA 982, N^3,N^3 -diethyl-N^1 -(α,α-dimethylbenzyl)alanylalanineamide]: the “Percentage animals protected” value in data set [2] (66 mg/kg p.o. (one tenth of LD50), 10 min) was 0 per cent; in data set [2] (66 mg/kg p.o. (one tenth of LD50), 60 min), 0 per cent; in data set [2] (210 mg/kg p.o. (LD 0.1), 10 min), 40 per cent; in data set [2] (210 mg/kg p.o. (LD 0.1), 60 min), 15 per cent. For the same compound, the “LD 0.1 (the dose which kills 0.1 % of the animals)” value in data set [3] is 210 mg/kg bodyweight. The “Toxicity LD50 p.o.” value in data set [3] worked out at 660 mg/kg bodyweight.
For the compound `CCN(CC)CC(=O)NCC(=O)Nc1ccccc1` [GEA 984, N,N-diethylglycylglycine anilide], the “Dose … of ECG-changes indicating Asystolie” value in data set [1] (100 mg/kg i.p.) turned out to be 284 ± 29 μg/kg bodyweight. Moreover, in data set [1] (100 mg/kg i.p.), the “Dose … of ECG-changes indicating Fibrillation” value came out at 211 ± 18 μg/kg bodyweight. Also, the “Dose … of ECG-changes indicating Tachycardia” value in data set [1] (100 mg/kg i.p.) came to 95 ± 9 μg/kg bodyweight. In addition, the “Percentage animals protected” value in data set [2] (250 mg/kg p.o., 10 min) turned out to be 0 per cent; in data set [2] (250 mg/kg p.o., 60 min), 0 per cent; in data set [2] (500 mg/kg p.o., 10 min) it was 70 per cent; in data set [2] (500 mg/kg p.o., 60 min), 10 per cent; in data set [2] (1000 mg/kg p.o., 10 min), 75 per cent; in data set [2] (1000 mg/kg p.o., 60 min), 0 per cent. In addition, the “Toxicity LD50 p.o.” value in data set [3] was above 1000 mg/kg bodyweight.
As for `CCN(CC)CC(=O)Nc1c(C)cccc1C` [Lidocaine, 2-diethylamino-2', 6'-acetoxylidide, reference compound], in data set [1] (25 mg/kg i.p.), the “Dose … of ECG-changes indicating Asystolie” value worked out at 237 ± 35 μg/kg bodyweight, the “Dose … of ECG-changes indicating Fibrillation” value was determined as 176 ± 12 μg/kg bodyweight and the “Dose … of ECG-changes indicating Tachycardia” value came out at 66 ± 7 μg/kg bodyweight. Besides, the “LD 0.1 (the dose which kills 0.1 % of the animals)” value in data set [3] is reported as 150 mg/kg bodyweight. For the same compound, the Oral antiarrhythmic effectiveness entry in data set [6] was “not orally effective”.
